The source of these data is patent US20090317477A1, “COMBINATION OF DEHYDROEPIANDROSTERONE OR DEHYDROEPIANDROSTERONE-SULFATE WITH A GLUCOCORTICOSTEROID FOR TREATMENT OF ASTHMA, CHRONIC OBSTRUCTIVE PULMONARY DISEASE OR ALLERGIC RHINITIS” (priority 2004, published 2009).

Series [1] in a line: Solid-state stability at 50° C. with and without lactose (DHEA formed, HPLC). It counts as physicochemical. The settings on record: dihydrate. The text has this:
These conditions are used to stress the formulation in order to predict its long-term stability results. […] The primary degradant is DHEA. […] The materials on accelerated storage become more cohesive with time as evidenced by clumping during sample weighing for chemical analysis. […] This is a considerable disadvantage since lactose is the most commonly used inhalation excipient for dry powder formulations. Continuing with the virtually anhydrous form would mean limiting formulations to neat powder or undertaking more comprehensive safety studies to use a novel excipient.

In series [2] the target is T1, Glucocorticoid receptor (Homo sapiens, UniProt P04150).
T1 sequence (P04150 1-777): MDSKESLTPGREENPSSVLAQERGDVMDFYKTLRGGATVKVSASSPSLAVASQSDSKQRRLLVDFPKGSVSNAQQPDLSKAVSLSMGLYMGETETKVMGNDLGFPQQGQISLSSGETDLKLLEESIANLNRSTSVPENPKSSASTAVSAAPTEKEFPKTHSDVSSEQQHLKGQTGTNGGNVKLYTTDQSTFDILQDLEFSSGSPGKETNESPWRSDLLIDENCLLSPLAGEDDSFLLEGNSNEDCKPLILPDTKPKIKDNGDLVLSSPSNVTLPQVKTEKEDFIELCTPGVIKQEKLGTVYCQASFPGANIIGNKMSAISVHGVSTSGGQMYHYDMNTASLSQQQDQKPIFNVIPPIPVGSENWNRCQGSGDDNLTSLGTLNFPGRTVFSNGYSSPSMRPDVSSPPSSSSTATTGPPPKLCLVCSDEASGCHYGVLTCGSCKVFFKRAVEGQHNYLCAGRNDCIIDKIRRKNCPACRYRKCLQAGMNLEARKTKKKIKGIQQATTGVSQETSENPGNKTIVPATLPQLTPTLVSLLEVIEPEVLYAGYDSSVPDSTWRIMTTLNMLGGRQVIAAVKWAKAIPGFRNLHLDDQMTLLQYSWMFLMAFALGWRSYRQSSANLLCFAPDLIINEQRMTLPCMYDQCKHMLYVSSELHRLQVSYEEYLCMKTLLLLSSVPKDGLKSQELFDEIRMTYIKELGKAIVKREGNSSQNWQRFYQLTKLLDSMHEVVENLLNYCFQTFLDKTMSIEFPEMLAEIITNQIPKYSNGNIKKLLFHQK
As to the kind of experiment: Radioligand binding assay, Glucocorticoid. As to conditions: 100 μM.

Series [3] can be described thus: Nebulizer studies (Pari ProNeb Ultra, LC Plus). It counts as physicochemical. The settings on record: 0.12% NaCl.
Description: The nebulizer is filled with 5 mL of solution and nebulization is continued until the output became visually insignificant (4½ to 5 min.). Nebulizer solutions are tested using a California Instruments AS-6 6-stage impactor with a USP throat. The impactor is run at 30 L/min for 8 s to collect a sample following one minute of nebulization time. At all other times during the experiment, the aerosol is drawn through the by-pass collector at approximately 33 L/min. The collection apparatus, nebulizer, and impactor are rinsed with mobile phase and assayed by HPLC. […] This volume is selected as the practical upper limit for use in a clinical study.
Series [4] can be described thus: Fine particle fraction, single-dose Acu-Breathe device into Andersen impactor. It counts as physicochemical. The settings on record: aerosol of dihydrate/lactose blend; Test 2; 60 L/min. The method, then: The single-dose Acu-Breathe device is used for evaluating DHEA-S-dihydrate. Approximately 10 mg of neat DHEA-S-dihydrate powder is filled and sealed into foil blisters. These blisters are actuated into the Andersen 8-stage cascade impactor at flow rates ranging from 30 to 75 L/min with a glass twin-impinger throat. Stages 1-5 of the Andersen impactor are rinsed together to obtain an estimate of the fine particle fraction. Pooling the drug collected from multiple stages into one assay make the method much more sensitive. […] This unique feature of DHEA-S-dihydrate has not been reported in any previous literature. […] Using a carrier with a larger particle size typically improves the aerosol properties of micronized drug substances.
Approximately 25 mg of this powder is filled and sealed in foil blisters and aerosolized using the single-dose device at 60 L/min. The aerosol results for this preliminary powder blend are satisfactory for a respiratory drug delivery system. […] This diameter is smaller than the median diameter measured for micronized DHEA-S-dihydrate by laser diffraction. Irregularly shaped particles can behave aerodynamically as smaller particles since their longest dimension tends to align with the air flow field. Therefore, it is common to see a difference between the two methods. […]

In series [5] the test system is LPS-induced secretion of TNFα from PBMC. As to the kind of experiment: LPS-induced secretion of TNFα from PBMC. The format is cell-based, human. The method, then: Thereafter, 1 μg/ml LPS was added to induce the cytokine secretion and the mixture was incubated for 24 h at 37° C. For basal control measurements, LPS was omitted from the incubation medium. Following incubation, the samples were centrifuged at 250× g for 5 min at 4° C. and the supernatants were collected.
The amount of secreted TNF-α present in the supernatant was quantified using an EIA detection kit (R&D systems). The photometric measurements were made with a microplate reader (Ultra, Tecan).
The results are expressed as a percent inhibition of the control secretion induced by LPS in Table 16.

Series [6] in a line: Solubility of DHEA-S. The format is physicochemical. The settings on record: 20 mM Na^+; Ksp of 1316 mM^2 (15° C.). The text has this:
Inhalation of pure water can produce a cough stimulus. […] The temperature effect is weaker at high NaCl concentrations.

Series [7] has as its system Glucocorticoid, Testosterone, Estrogen ERα, Estrogen ERβ, Progesterone, Vitamin D3 receptors. As to the kind of experiment: Radioligand binding assays, steroid receptor panel (statements in words).
Series [8] concerns HT-29 SF cells. Description: DHEA effect on cell growth.
Description: Cell cultures, HT-29 SF cells, which represent a subline of HY-29 cells (ATCC, Rockville, Md.) and are adapted for growth in completely defined serum-free PC-1 medium (Ventrex, Portland, Me.), are obtained. Stock cultures are maintained in this medium at 37° C. (in a humidified atmosphere containing 5% CO2).
Series [9] concerns HT-29 SF cells. Description: DHEA effect on cell cycle (flow cytometry). It counts as cell-based, human. The method, then:
Cells are plated at 10^5/60-mm dish in duplicate. […] Cultures are trypsinized following […] and fixed and stained using a modification of a procedure of Bauer et al., Cancer Res. 46, 3173-3178 (1986). Briefly, cells are collected by centrifugation and resuspended in cold phosphate-buffered saline. Cells are fixed in 70% ethanol, washed, and resuspended in phosphate-buffered saline.
After 24, 48, and 72 hours, cells are harvested, fixed in ethanol, and stained with propidium iodide, and the DNA content/cell is determined by flow cytometric analysis. The percentage of cells in G1, S, and G2M phases is calculated using the Cellfit cell cycle analysis program. S phase is marked by a quadrangle for clarity. Representative histograms from duplicate determinations are shown. The experiment is repeated three times.
For orientation: A flow cytometer gives signals particle by particle.

In series [10] the test system is HT-29 SF cells. Description: Reversal of DHEA effect on cell cycle. It counts as cell-based, human. The settings on record: 25 μM DHEA; increasing exposure time.
Series [11] relates to Intracellular adenosine. The format is in vivo, Fischer 344 rats. As to conditions: rat.
The mark [12] stands for this setting: Homo sapiens, PBMC, read-out: percent inhibition of LPS-induced TNFα secretion.

The structures appear in SMILES notation. Several values for one entry are separate records, joined by “and”; a condition that tells them apart may be missing. Identical values can stand only once.

Consider `CC12CCC3C(CC=C4CC(OS(=O)(=O)[O-])CCC43C)C1CCC2=O.[Na+]` (centres unmarked) [DHEA-S dihydrate], for which the “Percent DHEA formed” value was determined as 0.216% in [1] (50° C., 1 week); 0.317% in [1] (50° C., 3 weeks); 0.374% in [1] (50° C., 4 weeks); 0.218% in series [1] (Control, sealed, 25° C., 4 weeks); 0.213% in series [1] (Control, sealed, 25° C., first column (Time=0)).
For the molecule `C[C@]12CC[C@H](OS(=O)(=O)[O-])CC1=CC[C@@H]1[C@@H]2CC[C@]2(C)C(=O)CC[C@@H]12.[Na+]` [DHEA-S, sodium dehydroepiandrostenone sulfate], the “binding to the glucocorticosteroid receptor” value in series [2] is “does not bind to the glucocorticosteroid receptor”. In addition, in series [3], the “highest solution concentration for a clinical trial formulation (no precipitate during nebulization)” value is given as “approximately 7.5 mg/mL”. The “median diameter of aerosol by cascade impaction” value in series [4] is on record as roughly 2.5 μm. The “percent inhibition of LPS-induced TNFα secretion” value in series [5] (DHEAS 30 μM alone) is on record as −2%; in series [5] (DHEAS 100 μM alone) it was 32%. Besides, the “calculated solubility of DHEA-S^−” value in series [6] is 27.5 mM and 10.7 mg/mL. Besides, in series [7], the “binding to the steroid receptors” value is on record as “lack of effect on ligand binding on the other four receptors”.
In the case of `C[C@]12CC[C@H](O)CC1=CC[C@@H]1[C@@H]2CC[C@]2(C)C(=O)CC[C@@H]12` [DHEA, 3β-hydroxyandrost-5-en-17-one], the “exposure time after which cell number is reduced compared to controls” value in series [8] (12.5 μM DHEA) amounted to 72 h; in series [8] (25 μM DHEA) it was 48 h; in series [8] (50 μM DHEA), 48 h; in [8] (200 μM DHEA), 24 h. In addition, the “inhibition of growth” value in series [8] (12.5-200 μM, 24-72 hours) is “time- and dose-dependent inhibition of growth”. Besides, the cell cycle distribution entry in series [9] (200 μM DHEA) was “more rapid increase in the percentage of cells in G1 and a decreased proportion of cells in S phase after 24 hours”. Further, the “cell cycle effect” value in series [9] (25, 50, 200 μM, 24-72 hours) was “G1 block in HT-29 SF cells in a time-and dose-dependent manner”. For the same molecule, the “effect on proportion of cells in S phase” value in series [10] was “progressively reduced the proportion of cells in S phase”. For the same molecule, the “effect on adenosine across organs” value in series [11] (daily for two weeks) is recorded as “multi-organ depletion of adenosine”.
What is called inhibition is the relative decrease from the control value, in per cent. `C[C@@H]1C[C@H]2[C@@H]3CCC4=CC(=O)C=C[C@]4(C)[C@@]3(F)[C@@H](O)C[C@]2(C)[C@@]1(O)C(=O)CO` [Dexamethasone]: in [5] (setting [12]), the inhibition at 0.001 µM was -3%, the inhibition at 0.01 µM came to 4% and the inhibition at 0.1 µM came to 36%.
On to `Nc1nc(=O)c2c([nH]1)NCC(CNc1ccc(C(=O)N[C@@H](CCC(=O)O)C(=O)O)cc1)N2C=O` (mixture of isomers) [Folinic Acid], for which the “Intracellular adenosine, Brain” value in [11] (in vivo) stood at 0.72 ± 0.09. For the same molecule, the “effect of coadministration of folinic acid on steroid-mediated adenosine depletion” value in series [11] (with DHEA or methyltestosterone) was “completely abrogate steroid-mediated adenosine depletion”.
